Source: patent US20220213030A1, “AMINOGUANIDINE HYDRAZONES AS RETROMER STABILIZERS USEFUL FOR TREATING NEUROLOGICAL DISEASES” (OSPEDALE SAN RAFFAELE SRL, priority 2019, published 2022)

Tests used:
VPS26 = conditions: neuronal cultures; cited from earlier work
neuronal cultures = conditions: cited from earlier work
VPS35 [1] = biological target: VPS35 (Homo sapiens, UniProt Q96QK1+Q9UBQ0); design: host or cells: neuronal cultures; conditions: neuronal cultures; cited from earlier work
Aβ42 = conditions: wild type and APP-mutated hippocampal neurons; cited from earlier work
CMC = CMC (Homo sapiens, UniProt Q96QK1+Q9UBQ0); conditions: in vitro; cited from earlier work
VPS35 [2] = biological target: T1, VPS35 (Mus musculus, UniProt Q9EQH3+Q9QZ88); assay: VPS35 levels in Neuro2a cells by Western blot (screening of amino guanidine hydrazones); assay type: cell-based; design: endogenous in cells; host or cells: Neuro2a; conditions: 48 hours, compounds at 10 μM
Method: To functionally screen the majority of synthetized amino guanidine hydrazones of the invention and determine their effects on the retromer complex, we incubated Neuro2a cells with each synthetized molecule at the concentration of 10 μM.
The test was executed in triplicate for each tested compound of the invention, cells lysates were established after 48 hours' incubation, and levels of VPS35 were normalized on the housekeeping gene β-Actin by Western blot. We observed a preliminary SAR among the compounds.
Fold changes are calculated over normalized VPS35 levels measured in vehicle-treated cells.
Neuro2a cells were seeded on 12 wells multiwell at the concentration of 100 000 cells/well. Cells were incubated with each compound, including the standard R55, at 10 μM for 48 hours. Cells were then washed in PBS 1× and lysed in a buffer containing Tris-HCl 10 mM pH8, EDTA 1 mM pH8, NaCl 100 mM, NP40 1%, with protease inhibitor cocktail (Sigma) 1×. Using a cell scraper total lysates were collected from each well, quantified with BCA (BCA protein assay, Thermofisher). Five μg were resolved on precast 10% acrylamide gel (Biorad). Proteins were transferred to a PVDF membrane (Millipore) and western blot were performed using the following antibodies: goat αVPS35 (1:1000), mouse α-βActin (1:10000). Detection of proteins was obtained by a chemiluminescence detection kit (PerkinElmer).

Aβ40 = conditions: wild type and APP-mutated hippocampal neurons; cited from earlier work
VPS35 [3] = biological target: T1, VPS35; assay: VPS35 levels in spinal cord extracts of C57BL6J mice by western blot; assay type: in vivo; design: Lumbar spinal cords were dissected from saline perfused mice and rapidly homogenized; from tissue; host or cells: lumbar spinal cord of mice; conditions: 10 mg/kg daily intraperitoneal for 7 days
Method: We next asked whether the compound 2a can cross the blood brain barrier (BBB) of the brain. We run a pharmacokinetic assay on C57BL6J mice that received daily intraperitoneal injections of compound 2a (10 mg/Kg/day). Mice were sacrificed after 1, 7, 15 and 30 days saline perfused to avoid the CNS contamination of compounds contained in blood circulation and brains used for the determination of compound 2a levels by mass spectrometry. […] We next investigated in vivo if the retromer stabilization occurs in response to Compound 2a treatment. We intraperitoneally injected R55 and Compound 2a in adult C57BL6J mice as above described. After one week, mice were sacrificed, proteins extracts were assayed by western blot.
Lumbar spinal cords were dissected from saline perfused mice and rapidly homogenized in the following lysis buffer: Tris-HCl 10 mM pH 8, EDTA pH 8 1 mM, NaCl 100 mM, NP40 1% and protease inhibitor cocktail (Sigma). Protein extracts were obtained using a tight-fitting glass Potter tissue grinder (1 ml; Wheaton) and then sonicated at a frequency of 20 kHz (10 times-1s). […] Protein concentrations were measured by BCA protein assay kit (Thermofisher) according to the manufacturer's recommendations. […] Quantifications were done using the Image Lab 6.0.1 software (Bio-Rad).

N=C(N)SCc1ccc(CSC(=N)N)s1 [Compound R55]
VPS26 levels (VPS26): ≈ 150%
not toxic up to (concentration) (neuronal cultures): up to 50 μM
VPS35 levels (VPS35 [1]): ≈ 180%
reduction of Aβ42 levels (Aβ42): up to 39%
increase in denaturation temperature (CMC): ≈ 10 °C
VPS35 levels (in words) (VPS35 [2]): efficiently and dose-dependently increased VPS35 levels
reduction of Aβ40 levels (Aβ40): up to 44%
VPS35 levels in SC extracts (ratio versus vehicle-treated mice) (VPS35 [3]): did not increase VPS35 levels
